From ChEMBL document CHEMBL1201862, “PubChem BioAssay data set” (2004)
Calls of active or inactive are those of the source.

How the values were obtained:
[1] = target: SUMO E1/E2 (Homo sapiens, UniProt P63279+Q9UBE0+Q9UBT2); test: SAR analysis of SUMOylation using HTRF in an in-Vitro dose response assay. [Related pubchem assays (depositor defined):AID2006, AID2011, AID2018, AID2069, AID2658]; type: functional
[2] = target: T1, Tyrosine-protein phosphatase non-receptor type 7 (Homo sapiens, UniProt P35236); test: HePTP (PTPN7) phosphatase inhibitor potency, SAR follow-up, biochemical, set 2 (AID 449736); type: functional
T1 sequence (P35236 whole entry): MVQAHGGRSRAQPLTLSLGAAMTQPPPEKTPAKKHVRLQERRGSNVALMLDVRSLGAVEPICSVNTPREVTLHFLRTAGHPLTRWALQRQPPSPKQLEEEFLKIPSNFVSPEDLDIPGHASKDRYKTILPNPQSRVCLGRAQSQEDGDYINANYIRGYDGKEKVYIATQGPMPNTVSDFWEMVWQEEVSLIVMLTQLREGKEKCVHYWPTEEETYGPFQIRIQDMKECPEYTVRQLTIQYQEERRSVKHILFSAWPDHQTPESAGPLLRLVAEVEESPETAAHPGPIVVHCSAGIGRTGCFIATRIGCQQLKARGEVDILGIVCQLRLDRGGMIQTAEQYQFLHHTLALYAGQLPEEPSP

[3] = target: T2, Tyrosine-protein phosphatase non-receptor type 22 (Homo sapiens, UniProt Q9Y2R2); test: LYP (PTPN22) phosphatase inhibitor potency, SAR follow-up, biochemical, pCAP fluorogenic substrate, fluorescence, set 3 (AID 449727); type: functional
T2 sequence (Q9Y2R2 whole entry): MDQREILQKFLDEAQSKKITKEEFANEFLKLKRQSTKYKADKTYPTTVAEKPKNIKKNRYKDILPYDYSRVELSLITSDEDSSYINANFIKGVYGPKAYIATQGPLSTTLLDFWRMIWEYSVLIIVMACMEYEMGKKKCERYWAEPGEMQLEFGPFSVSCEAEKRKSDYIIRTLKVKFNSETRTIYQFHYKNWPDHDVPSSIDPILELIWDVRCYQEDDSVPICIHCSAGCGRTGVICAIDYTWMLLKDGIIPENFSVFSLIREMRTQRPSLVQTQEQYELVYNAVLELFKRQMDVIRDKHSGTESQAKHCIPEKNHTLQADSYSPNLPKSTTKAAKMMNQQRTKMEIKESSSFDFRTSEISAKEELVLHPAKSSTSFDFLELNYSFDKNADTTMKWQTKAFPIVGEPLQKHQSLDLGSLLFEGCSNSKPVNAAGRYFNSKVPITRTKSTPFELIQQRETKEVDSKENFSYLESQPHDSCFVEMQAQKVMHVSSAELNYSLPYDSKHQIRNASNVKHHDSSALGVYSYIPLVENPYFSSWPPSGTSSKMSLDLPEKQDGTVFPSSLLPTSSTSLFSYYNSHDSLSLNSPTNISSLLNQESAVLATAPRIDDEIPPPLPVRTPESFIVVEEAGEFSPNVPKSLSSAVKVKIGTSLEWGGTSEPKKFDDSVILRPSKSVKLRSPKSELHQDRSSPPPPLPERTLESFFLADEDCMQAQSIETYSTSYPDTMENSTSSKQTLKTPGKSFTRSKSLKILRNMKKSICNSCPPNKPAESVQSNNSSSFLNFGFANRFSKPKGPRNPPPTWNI

[4] = target: T2, Tyrosine-protein phosphatase non-receptor type 22; test: SAR LYP1 Fluorescent Assay using OMFP substrate for In Vitro dose response studies - Set 3. [Related pubchem assays (depositor defined):AID1779, AID1784, AID2140, AID2686]; type: functional
[5] = target: T2, Tyrosine-protein phosphatase non-receptor type 22; test: SAR LYP1 Fluorescent Assay using OMFP substrate for In Vitro dose response studies - Set 2. [Related pubchem assays (depositor defined):AID1779, AID1784, AID2140, AID449726, AID488869]; type: functional
[6] = target: T2, Tyrosine-protein phosphatase non-receptor type 22; test: SAR LYP1 Fluorescent Assay using pCAP substrate for In Vitro dose response studies - Set 2. [Related pubchem assays (depositor defined):AID1779, AID1784, AID2135, AID449727]; type: functional
[7] = target: Tyrosine-protein phosphatase non-receptor type 12 (Homo sapiens, UniProt Q05209); test: SAR Selectivity Analysis of small molecule inhibitors of PEST using pCAP in a fluorescence assay. [Related pubchem assays (depositor defined):AID1779, AID1784, AID2135]; type: functional
[8] = target: T2, Tyrosine-protein phosphatase non-receptor type 22; type: functional
[9] = cytotoxicity toward NIH3T3 fibroblasts, dose response, counter-screen, cell-based, ATP luminescence, mouse fibroblasts (AID 2010); type: functional;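 note: cells exposed to compound for about 90 hours before reading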
[10] = inhibitors of intracellular T. cruzi replication, confirmation, NIH3T3 host cells, beta-gal luminescence (AID 2044); type: functional, cell-based;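 note: intracellular parasites grown in NIH/3T3 mouse fibroblasts as host cells; luminescent beta-galactosidase reporter signal from transgenic T. cruzi replicating inside host cells; inhibitors lower the luminescence signal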
[11] = target: T1, Tyrosine-protein phosphatase non-receptor type 7; type: functional
[12] = target: T2, Tyrosine-protein phosphatase non-receptor type 22; type: functional; remark: listed apart in the source
[13] = target: T3, Intestinal-type alkaline phosphatase (Mus musculus, UniProt P24822); test: PubChem AID 488785; type: functional
T3 sequence (P24822 whole entry): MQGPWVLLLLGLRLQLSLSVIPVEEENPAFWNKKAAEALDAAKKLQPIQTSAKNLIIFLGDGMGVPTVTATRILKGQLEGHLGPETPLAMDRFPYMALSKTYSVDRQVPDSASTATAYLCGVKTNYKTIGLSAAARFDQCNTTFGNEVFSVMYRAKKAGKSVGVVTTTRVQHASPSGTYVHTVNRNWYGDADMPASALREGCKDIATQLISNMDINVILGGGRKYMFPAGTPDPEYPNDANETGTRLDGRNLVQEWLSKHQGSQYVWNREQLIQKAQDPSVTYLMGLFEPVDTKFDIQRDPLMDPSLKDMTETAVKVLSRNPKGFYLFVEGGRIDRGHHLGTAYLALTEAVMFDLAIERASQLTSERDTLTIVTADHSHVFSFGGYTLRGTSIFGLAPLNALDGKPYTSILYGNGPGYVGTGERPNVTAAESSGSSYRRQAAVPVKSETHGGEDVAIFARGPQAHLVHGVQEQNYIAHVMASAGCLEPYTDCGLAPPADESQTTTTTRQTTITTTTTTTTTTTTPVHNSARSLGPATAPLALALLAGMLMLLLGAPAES

[14] = target: T4, Intestinal-type alkaline phosphatase (Homo sapiens, UniProt P09923); test: inhibition of human intestinal alkaline phosphatase – biochemical, dose response (AID 488876); type: functional
T4 sequence (P09923 whole entry): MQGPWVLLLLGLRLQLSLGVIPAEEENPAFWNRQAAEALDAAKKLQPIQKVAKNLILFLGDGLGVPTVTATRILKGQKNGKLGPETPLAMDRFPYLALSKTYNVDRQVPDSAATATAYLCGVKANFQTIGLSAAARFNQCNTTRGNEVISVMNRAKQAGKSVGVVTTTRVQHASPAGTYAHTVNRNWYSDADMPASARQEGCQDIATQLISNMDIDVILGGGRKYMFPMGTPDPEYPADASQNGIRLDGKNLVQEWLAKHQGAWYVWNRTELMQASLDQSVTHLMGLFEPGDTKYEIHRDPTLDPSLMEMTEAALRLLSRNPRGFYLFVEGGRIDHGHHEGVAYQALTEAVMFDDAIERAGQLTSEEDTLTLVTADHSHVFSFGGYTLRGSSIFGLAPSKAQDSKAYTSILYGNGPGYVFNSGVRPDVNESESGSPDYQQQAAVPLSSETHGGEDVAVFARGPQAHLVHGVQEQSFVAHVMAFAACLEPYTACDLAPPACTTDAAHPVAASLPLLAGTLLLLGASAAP

[15] = target: T5, Alkaline phosphatase, tissue-nonspecific isozyme (Homo sapiens, UniProt P05186); test: TNAP enzyme inhibition by screening hits, dose response, selectivity assay for mouse IAP inhibitor project, biochemical, human TNAP, uHTS hits (AID 488906); type: functional
T5 sequence (P05186 whole entry): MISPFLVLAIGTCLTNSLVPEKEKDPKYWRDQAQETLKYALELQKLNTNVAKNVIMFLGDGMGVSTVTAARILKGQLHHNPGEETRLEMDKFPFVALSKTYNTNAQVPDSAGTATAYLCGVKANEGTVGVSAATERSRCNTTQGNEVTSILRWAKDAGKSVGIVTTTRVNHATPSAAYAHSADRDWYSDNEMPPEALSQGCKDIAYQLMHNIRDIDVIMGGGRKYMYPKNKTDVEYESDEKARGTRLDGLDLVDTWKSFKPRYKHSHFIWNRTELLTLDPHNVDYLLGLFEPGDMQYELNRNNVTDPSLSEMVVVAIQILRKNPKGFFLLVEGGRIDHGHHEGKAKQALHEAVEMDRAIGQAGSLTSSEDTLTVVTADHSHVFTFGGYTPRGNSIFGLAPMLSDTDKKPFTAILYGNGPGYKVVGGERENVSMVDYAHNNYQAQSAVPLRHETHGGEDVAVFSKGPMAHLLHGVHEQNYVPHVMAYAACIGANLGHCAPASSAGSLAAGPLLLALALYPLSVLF

[16] = target: T5, Alkaline phosphatase, tissue-nonspecific isozyme; test: TNAP enzyme activators, dose response, selectivity assay for mouse IAP activator project, biochemical, TNAP isozyme, mouse IAP uHTS hits (AID 488880); type: functional
[17] = target: Large T antigen (Simian virus 40, UniProt P03070); type: functional, Betapolyomavirus macacae;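 note: Confirmatory-stage PubChem screen for compounds that inhibit SV40 T antigen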
Large T antigen, sequence (P03070 whole entry): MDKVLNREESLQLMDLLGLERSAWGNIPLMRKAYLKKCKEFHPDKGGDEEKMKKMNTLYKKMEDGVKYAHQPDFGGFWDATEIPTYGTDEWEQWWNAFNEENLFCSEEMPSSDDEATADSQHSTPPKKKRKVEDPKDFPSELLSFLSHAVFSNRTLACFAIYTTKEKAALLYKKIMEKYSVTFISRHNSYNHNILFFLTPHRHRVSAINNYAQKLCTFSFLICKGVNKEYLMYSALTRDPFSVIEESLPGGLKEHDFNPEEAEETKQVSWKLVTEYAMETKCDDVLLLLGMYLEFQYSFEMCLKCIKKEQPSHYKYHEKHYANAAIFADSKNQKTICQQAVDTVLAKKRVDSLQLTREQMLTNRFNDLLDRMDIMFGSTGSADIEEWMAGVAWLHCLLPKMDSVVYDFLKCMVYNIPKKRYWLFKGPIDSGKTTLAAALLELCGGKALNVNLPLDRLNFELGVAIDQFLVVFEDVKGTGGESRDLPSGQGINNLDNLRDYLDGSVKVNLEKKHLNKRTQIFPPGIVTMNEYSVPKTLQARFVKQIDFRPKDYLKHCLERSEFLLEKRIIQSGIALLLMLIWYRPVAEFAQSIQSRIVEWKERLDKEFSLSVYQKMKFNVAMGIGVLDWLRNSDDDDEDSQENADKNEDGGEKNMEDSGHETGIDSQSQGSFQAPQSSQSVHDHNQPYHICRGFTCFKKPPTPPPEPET

[18] = target: T6, ORF 73 (Human herpesvirus 8, UniProt O40947); test: inhibitors of C-LANA binding to LBS DNA, dose response, biochemical, fluorescence polarization, cherry-picked samples (AID 504725); set-up: species or system Human gammaherpesvirus 8;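 note: fluorescence polarization of a labeled DNA duplex reporting LANA DNA binding; potency is for inhibitors that block LANA binding to the DNA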
T6 sequence (O40947 whole entry): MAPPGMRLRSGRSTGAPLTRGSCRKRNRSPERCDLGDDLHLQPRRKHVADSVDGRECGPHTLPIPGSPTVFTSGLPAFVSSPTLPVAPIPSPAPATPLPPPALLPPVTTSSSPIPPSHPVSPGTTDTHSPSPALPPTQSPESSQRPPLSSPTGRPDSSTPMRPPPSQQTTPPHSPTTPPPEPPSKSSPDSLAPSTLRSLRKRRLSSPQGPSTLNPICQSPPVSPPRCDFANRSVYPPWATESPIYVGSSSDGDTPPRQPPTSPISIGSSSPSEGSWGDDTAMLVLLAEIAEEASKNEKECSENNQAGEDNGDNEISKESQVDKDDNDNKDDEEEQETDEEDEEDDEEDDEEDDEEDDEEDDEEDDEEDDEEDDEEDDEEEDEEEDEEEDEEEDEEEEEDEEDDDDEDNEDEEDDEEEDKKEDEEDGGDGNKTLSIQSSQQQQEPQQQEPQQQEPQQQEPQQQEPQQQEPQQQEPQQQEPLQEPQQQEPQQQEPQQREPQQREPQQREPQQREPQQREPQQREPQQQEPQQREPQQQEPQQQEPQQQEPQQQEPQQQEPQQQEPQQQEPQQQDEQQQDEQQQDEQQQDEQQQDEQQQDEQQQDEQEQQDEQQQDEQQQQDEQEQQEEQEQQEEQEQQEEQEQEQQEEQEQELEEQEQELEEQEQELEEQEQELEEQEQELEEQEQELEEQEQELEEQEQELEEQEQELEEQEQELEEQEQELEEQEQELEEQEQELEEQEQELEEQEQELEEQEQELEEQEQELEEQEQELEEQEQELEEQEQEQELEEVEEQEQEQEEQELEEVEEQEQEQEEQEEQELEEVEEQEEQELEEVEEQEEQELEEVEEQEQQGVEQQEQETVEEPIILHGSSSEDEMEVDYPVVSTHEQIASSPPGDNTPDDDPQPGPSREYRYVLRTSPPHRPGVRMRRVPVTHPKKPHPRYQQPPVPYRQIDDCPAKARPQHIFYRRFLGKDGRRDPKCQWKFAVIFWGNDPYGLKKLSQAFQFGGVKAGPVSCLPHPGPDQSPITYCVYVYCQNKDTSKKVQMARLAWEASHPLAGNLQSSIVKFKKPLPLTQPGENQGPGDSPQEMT

[19] = target: T4, Intestinal-type alkaline phosphatase; test: activation of human intestinal alkaline phosphatase – biochemical, dose response (AID 488873); type: functional
[20] = system: HeLa; test: HeLa cell cytotoxicity, dose response, cytotoxicity control, 24 h, cherry-picked samples (AID 504726); type: functional, cell-based; details: Homo sapiens;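 note: potency for cytotoxicity as loss of luminescence signal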
[21] = target: T7, Delta-type opioid receptor (Homo sapiens, UniProt P41143); test: HTS Image-Based Screen for Antagonists of the DOR Receptor. [Related pubchem assays (depositor defined):AID1777, AID1785, AID1786, AID2133]; type: functional
T7 sequence (P41143 whole entry): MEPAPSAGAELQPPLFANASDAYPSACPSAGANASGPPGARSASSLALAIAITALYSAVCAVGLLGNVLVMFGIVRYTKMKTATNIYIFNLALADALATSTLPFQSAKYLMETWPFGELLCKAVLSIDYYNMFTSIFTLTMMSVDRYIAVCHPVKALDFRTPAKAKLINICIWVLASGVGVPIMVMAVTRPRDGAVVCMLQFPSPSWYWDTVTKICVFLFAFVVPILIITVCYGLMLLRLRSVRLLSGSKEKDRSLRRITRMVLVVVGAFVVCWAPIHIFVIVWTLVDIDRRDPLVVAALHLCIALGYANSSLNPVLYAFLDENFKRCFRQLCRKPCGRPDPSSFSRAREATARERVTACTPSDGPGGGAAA

[22] = target: T8, Kappa-type opioid receptor (Homo sapiens, UniProt P41145); type: functional
T8 sequence (P41145 whole entry): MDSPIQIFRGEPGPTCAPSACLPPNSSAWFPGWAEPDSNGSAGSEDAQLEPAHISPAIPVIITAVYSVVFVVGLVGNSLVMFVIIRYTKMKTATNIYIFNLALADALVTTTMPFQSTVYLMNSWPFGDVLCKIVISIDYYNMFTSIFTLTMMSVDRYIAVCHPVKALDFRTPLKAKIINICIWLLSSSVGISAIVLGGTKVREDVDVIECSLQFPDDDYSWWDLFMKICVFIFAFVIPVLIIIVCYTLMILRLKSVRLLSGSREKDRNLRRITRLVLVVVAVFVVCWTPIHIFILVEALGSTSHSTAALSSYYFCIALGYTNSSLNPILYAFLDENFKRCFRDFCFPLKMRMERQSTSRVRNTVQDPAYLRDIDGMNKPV

[23] = target: Mu-type opioid receptor (Homo sapiens, UniProt P35372); test: HTS Image-Based Screen for Agonists of the MOR Receptor. [Related pubchem assays (depositor defined):AID1777, AID1785, AID1786, AID2133]; type: functional;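 note: imaging of beta-arrestin GFP recruitment into spots after receptor activation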
Mu-type opioid receptor, sequence (P35372 whole entry): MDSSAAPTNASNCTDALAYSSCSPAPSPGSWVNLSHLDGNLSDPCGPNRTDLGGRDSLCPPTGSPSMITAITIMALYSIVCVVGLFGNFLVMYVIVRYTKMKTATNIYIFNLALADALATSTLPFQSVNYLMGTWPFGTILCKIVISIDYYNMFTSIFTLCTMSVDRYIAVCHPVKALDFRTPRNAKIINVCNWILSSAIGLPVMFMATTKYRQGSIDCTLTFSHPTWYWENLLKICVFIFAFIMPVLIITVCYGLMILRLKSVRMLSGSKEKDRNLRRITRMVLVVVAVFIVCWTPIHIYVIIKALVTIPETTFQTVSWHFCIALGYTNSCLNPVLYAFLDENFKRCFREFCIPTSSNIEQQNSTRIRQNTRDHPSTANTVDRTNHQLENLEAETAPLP

[24] = target: T7, Delta-type opioid receptor; test: HTS Image-Based Screen for Agonists of the DOR Receptor. [Related pubchem assays (depositor defined):AID1777, AID1786, AID2133]; type: functional
[25] = target: T8, Kappa-type opioid receptor; type: functional; remark: listed apart in the source
[26] = target: Beta-galactosidase (Escherichia coli, UniProt Q8VNN2); type: functional
Beta-galactosidase, sequence (Q8VNN2 whole entry): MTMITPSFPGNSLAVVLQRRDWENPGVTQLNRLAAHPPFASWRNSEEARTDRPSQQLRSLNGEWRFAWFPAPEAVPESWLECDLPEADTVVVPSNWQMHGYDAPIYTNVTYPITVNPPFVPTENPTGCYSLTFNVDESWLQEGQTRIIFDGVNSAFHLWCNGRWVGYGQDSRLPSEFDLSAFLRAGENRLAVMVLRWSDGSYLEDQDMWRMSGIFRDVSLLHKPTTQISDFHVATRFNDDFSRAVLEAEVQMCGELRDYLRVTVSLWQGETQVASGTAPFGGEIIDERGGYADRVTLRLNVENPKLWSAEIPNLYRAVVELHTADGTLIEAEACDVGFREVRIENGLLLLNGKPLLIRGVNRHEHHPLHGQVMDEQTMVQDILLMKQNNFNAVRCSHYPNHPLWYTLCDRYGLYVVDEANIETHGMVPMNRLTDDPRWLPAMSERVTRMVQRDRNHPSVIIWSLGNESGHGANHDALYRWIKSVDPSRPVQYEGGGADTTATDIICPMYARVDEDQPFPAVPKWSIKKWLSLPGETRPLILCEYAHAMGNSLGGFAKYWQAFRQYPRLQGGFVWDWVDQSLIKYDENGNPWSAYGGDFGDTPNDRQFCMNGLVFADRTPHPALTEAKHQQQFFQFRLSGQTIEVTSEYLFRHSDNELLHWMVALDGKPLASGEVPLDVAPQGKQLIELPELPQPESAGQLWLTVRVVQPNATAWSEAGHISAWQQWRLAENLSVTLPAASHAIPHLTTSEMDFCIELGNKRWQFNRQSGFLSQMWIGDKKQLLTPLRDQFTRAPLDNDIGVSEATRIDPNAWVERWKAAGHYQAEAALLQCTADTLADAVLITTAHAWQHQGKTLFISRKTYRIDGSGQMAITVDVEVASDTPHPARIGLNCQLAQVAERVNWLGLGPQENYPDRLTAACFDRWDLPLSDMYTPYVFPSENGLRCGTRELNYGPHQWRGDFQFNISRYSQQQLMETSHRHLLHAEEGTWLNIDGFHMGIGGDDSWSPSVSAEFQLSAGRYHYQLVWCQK

[27] = target: T4, Intestinal-type alkaline phosphatase; test: human IAP activators, dose response, biochemical, luminescent, uHTS hits, set 2 (AID 488817); type: functional;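 note: potency of activators that raise enzyme activity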
[28] = target: T3, Intestinal-type alkaline phosphatase; test: PubChem AID 488874; type: functional
[29] = target: T4, Intestinal-type alkaline phosphatase; test: human intestinal alkaline phosphatase activators, dose response, biochemical, luminescence, uHTS hits (AID 463120); type: functional
[30] = target: T5, Alkaline phosphatase, tissue-nonspecific isozyme; test: TNAP enzyme activators, dose response, selectivity assay for human IAP activator project, biochemical, TNAP isozyme, human IAP uHTS hits (AID 488886); type: functional;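 note: potency of compounds raising TNAP activity as a selectivity check on IAP activators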
[31] = target: T9, Sentrin-specific protease 8 (Homo sapiens, UniProt Q96LD8); type: functional
T9 sequence (Q96LD8 whole entry): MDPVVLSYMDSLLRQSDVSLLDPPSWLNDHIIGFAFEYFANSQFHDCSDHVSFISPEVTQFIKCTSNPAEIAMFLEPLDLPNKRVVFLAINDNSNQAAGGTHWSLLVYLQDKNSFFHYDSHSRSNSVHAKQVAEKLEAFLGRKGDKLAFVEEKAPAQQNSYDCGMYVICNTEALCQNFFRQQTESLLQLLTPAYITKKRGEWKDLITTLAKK

[32] = target: Lysine-specific demethylase 4C (Homo sapiens, UniProt Q9H3R0); test: GASC-1 (JMJD2C) histone demethylase inhibitors, dose response, biochemical, DELFIA europium, cherry-picked samples (AID 488835); type: functional
[33] = target: T9, Sentrin-specific protease 8; type: functional; remark: listed apart in the source
[34] = target: Lysine-specific demethylase 4A (Homo sapiens, UniProt O75164); test: JMJD2A histone demethylase inhibitors, dose response, selectivity assay for GASC-1 inhibitor project, biochemical, DELFIA europium, cherry-picked samples (AID 488840)
Lysine-specific demethylase 4A, sequence (O75164 whole entry): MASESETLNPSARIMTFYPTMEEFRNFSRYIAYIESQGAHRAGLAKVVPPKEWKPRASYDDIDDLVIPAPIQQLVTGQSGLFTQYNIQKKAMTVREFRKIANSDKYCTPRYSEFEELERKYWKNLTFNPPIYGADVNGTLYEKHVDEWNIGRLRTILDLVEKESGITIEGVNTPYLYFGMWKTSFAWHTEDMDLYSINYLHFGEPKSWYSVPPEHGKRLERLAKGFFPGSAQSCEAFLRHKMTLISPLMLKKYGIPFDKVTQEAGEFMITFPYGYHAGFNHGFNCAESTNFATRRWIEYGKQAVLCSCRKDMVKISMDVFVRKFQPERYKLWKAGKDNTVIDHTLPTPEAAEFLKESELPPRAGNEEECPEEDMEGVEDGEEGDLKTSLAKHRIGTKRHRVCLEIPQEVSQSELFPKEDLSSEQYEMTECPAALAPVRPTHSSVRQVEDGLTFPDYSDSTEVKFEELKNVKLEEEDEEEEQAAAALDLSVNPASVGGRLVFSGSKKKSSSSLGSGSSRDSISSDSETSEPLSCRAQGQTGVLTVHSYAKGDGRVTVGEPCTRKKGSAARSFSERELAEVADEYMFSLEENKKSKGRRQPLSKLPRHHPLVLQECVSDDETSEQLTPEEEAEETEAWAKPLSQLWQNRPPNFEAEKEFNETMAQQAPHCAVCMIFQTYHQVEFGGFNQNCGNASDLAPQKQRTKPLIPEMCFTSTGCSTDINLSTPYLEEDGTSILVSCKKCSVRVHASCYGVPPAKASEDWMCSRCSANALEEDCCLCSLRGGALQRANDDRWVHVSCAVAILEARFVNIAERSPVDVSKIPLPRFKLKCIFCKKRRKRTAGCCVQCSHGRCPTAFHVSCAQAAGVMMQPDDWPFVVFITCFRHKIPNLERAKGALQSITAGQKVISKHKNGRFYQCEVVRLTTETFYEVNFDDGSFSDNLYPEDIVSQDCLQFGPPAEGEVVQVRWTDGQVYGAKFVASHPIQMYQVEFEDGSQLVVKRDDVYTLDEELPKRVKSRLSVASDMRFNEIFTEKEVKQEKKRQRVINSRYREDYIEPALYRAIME

Cc1ccc(O)c(N=Cc2cccs2)c1
IC50 [1]: > 100 µM (inactive)

O=C(O)COc1ccc(C=NNC(=O)c2ccccc2Br)cc1
IC50 [2]: > 100 µM (inactive)
IC50 [3]: > 100 µM (inactive)
IC50 [4]: > 100 µM (inactive)
IC50 [5]: > 100 µM (inactive)
IC50 [6]: > 100 µM (inactive)
IC50 [7]: 66.3 µM (active)

CCCCOc1ccc(CN2CCCCC2)cc1
IC50 [8]: > 79.4 µM (inactive)
EC50 [9]: > 30 µM (not active)
EC50 [10]: 1.2 µM (active)
IC50 [11]: > 79.4 µM (inactive)
IC50 [12]: > 79.4 µM (inactive)

O=C(O)CNS(=O)(=O)c1ccc2c3c(cccc13)C(=O)N2
IC50 [13]: 8.43 µM (active)
IC50 [14]: > 100 µM (inactive)
IC50 [15]: 85.4 µM (active)

N=C1/C(=C\c2ccc(O)c(O)c2)C(=O)N=C2SC(CC(=O)N3CCCCC3)=NN12
IC50 [13]: 6.98 µM (active)
EC50 [16]: 21.5 µM (active)
IC50 [17]: 1.92 µM (active)
AC50 [18]: 2.44 µM (active)
EC50 [19]: 21.3 µM (active)
AC50 [20]: 267 µM (active)

COc1ccc(-c2csc(Cc3nc(O)cs3)n2)cc1
IC50 [21]: > 32 µM (inactive)
IC50 [22]: > 32 µM
EC50 [23]: > 32 µM (inactive)
EC50 [24]: > 32 µM (inactive)
IC50 [25]: 7.92 µM (active)
EC50 [26]: > 31.5 µM (inactive)

CCC(C)(C)C1CCc2n[nH]c(C(=O)N/N=C(\C)c3ccco3)c2C1 (stereo not given)
EC50 [27]: 33 µM (active)
IC50 [28]: > 100 µM (inactive)
EC50 [29]: 8.06 µM (active)
EC50 [30]: 34.9 µM (active)

CN1C(=O)C(Cc2ccsc2)C(=O)N(C)C1=O
IC50 [31]: 33.6 µM (active)
AC50 [32]: 3.65 µM (active)
IC50 [33]: 29.2 µM (active)
AC50 [34]: 8.7 µM (active)
